According to patent US10315146B2, “Filter medium for deactivating allergens” (Carl Freudenberg KG, priority 2015, dated 2019):

Assays:
[1] = system: Antigen Bet v1 from pollen; test: ELISA test of allergen-deactivating efficiency of the filter medium (birch pollen antigen); assay type: biochemical; conditions: summary of Table 1; acid on filter medium in dry state
Description: A carrier non-woven fabric of polyester spunbonded non-woven (weight per unit area 125 g/m^2) is finished in an allergen-deactivating manner with a mixture of lauric acid and citric acid. The allergen-deactivating doping of the carrier non-woven is carried out by applying a mixture of the active ingredients in aqueous solution to the carrier non-woven and subsequently drying the now finished non-woven fabric to thereby obtain a sample for analysis.
The size of the sample used in the test is 10 mm×10 mm.
Allergen sources used and antigens to be tested: • a) Allergen house dust mite: Antigen Der p1 from excrement • b) Allergen birch pollen: Antigen Bet v1 from pollen
Allergen sources from Allergon AB, Ängelholm, Sweden were used. […]

[2] = molecular target: T1, Antigen Der p1 from excrement (Dermatophagoides pteronyssinus, UniProt P08176); test: ELISA test of allergen-deactivating efficiency of the filter medium (house dust mite antigen); assay type: biochemical; conditions: text summary of Table 4; compared with the acids used according to the invention
T1 construct: tissue Allergon AB, Ängelholm, Sweden; host or cells: house dust mite excrement
Description: In the examples, ELISA (enzyme-linked immunosorbent assay) is used as a method for measuring the deactivation abilities of different active ingredient compositions in respect of particular allergens.
The ELISA method can measure allergen concentrations by assessing color changes due to antigen-antibody reactions.
A carrier non-woven fabric of polyester spunbonded non-woven (weight per unit area 125 g/m^2) is finished in an allergen-deactivating manner with a mixture of lauric acid and citric acid. […]
The absorption of the microplate is established according to the specifications of the ELISA kit manufacturer using a microplate reading device at a wavelength of 405 nm and thus the allergen concentration (antigen content) of each sample is determined.
To determine the allergen-deactivating efficiency, each antigen concentration of the sample reaction solution is determined according to the specifications of the ELISA kit manufacturer using a microplate reading device at a wavelength of 405 nm.
Here, the starting concentration and the measured allergen concentration of the sample correspond to an antigen-specific concentration in ng/ml. […]

T1 sequence (P08176 99-320): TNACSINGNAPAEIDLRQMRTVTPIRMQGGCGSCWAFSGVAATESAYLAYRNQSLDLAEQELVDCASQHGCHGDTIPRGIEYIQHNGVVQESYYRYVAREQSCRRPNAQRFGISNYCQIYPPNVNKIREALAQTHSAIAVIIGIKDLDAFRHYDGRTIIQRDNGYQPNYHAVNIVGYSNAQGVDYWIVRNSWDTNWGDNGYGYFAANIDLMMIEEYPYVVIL

| Compound | allergen-eliminating effect [1] | immunological effect [2] |
| --- | --- | --- |
| O=C(O)CC(O)C(=O)O (stereo not drawn) [malic acid] | high allergen-eliminating effect | – |
| O=C(O)CC(O)(CC(=O)O)C(=O)O [citric acid] | high allergen-eliminating effect | – |
| O=C([O-])[O-].[K+].[K+] [potassium carbonate] | – | significantly lower than that of the acids used according to the invention |
